IC50 data for 1 molecule are collected here from BindingDB's records for doi:10.1021/jm401549m (Chiesi Farmaceutici, 2014).

In this assay the target is cGMP-specific 3',5'-cyclic phosphodiesterase PDE5A (Homo sapiens) (UniProt O76074). Kind of assay: Inhibition of human platelet PDE5.

In general, IC50 refers to the point on the concentration scale where inhibition reaches its midpoint. For `CS(=O)(=O)Nc1ccc(C(=O)O[C@@H](Cc2c(Cl)c[n+]([O-])cc2Cl)c2ccc(OC(F)F)c(OCC3CC3)c2)cc1OCC1CC1` [Chf-6001], the IC50 was over 1000 nM.
